Assay results from US20020086027A1, “Composition and method for enhancing immunological memory response” (priority 1998, published 2002).
Entries after “also recorded” stand apart in the source; their conditions may differ.

Assays:
human T cells [1] = test: Cytokines in culture (IL-2 in supernatants, IFN-γ during recall); assay type: cell-based
From the text: Such possibilities make it plausible that signal-transduction pathways can be identified that differentially affect the commitment of responding T cells to the effector vs the memory pathways. […] It was of interest to look at the role of IL-2 in these events. […] Yet, the recall responses of cells primed under cover of […] are far higher than those of cells primed without […]). In fact, if […] is used in a situation in which T cell proliferation is abrogated by Aph it still enhances the response capability of primed T cells (FIG. 9). […] The enhancement in the magnitude of the secondary response caused by the presence of […] during priming is not simply the result of altered kinetics or response either (FIG. 11), but an actual increase. Clearly […] affects T cell priming such that commitment to memory is enhanced at the cost of effector responses, independent of its on T cell proliferation. […] (data not shown).

T cell lines = test: Intracellular cAMP levels in T cell lines; assay type: cell-based; settings: preliminary experiments
From the text: Several effects of POX on T cell signaling pathways have been reported. […] A major consequence of inhibition of phosphodiesterase is an increase in the levels of intracellular cAMP. […] This raises the possibility that although dbcAMP mimics POX in its effects on T cell priming, the precise molecular pathways involved may differ.

human T cells [2] = test: Secondary (recall) alloproliferative response of T cells primed in vitro; assay type: cell-based; settings: for memory/recall proliferative response: primed with allo-PBMCs in presence of 100 ug/ml drug, restimulated without drug
Description: In this system, we have used responses to first exposure as an indication of primary responses. When cells stimulated in this fashion are rested in culture and then restimulated with the same stimulator PBMCs, the 'recall' response measured are taken as an indication of immune memory. Proliferation is measured by the incorporation of radioactive tritiated thymidine in dividing cells. For priming, responder and stimulator cells mixed in 2-5 ml cultures in a ratio of 1:1-3:1. After five days of incubation, the cells were harvested, counted and viable cells used as primed responders with g-irradiated allostimulators in secondary alloproliferation assays, which were pulsed with (H^3)-thymidine after four days for estimating cell proliferation. For flow cytometric analysis, cells were separated from debris by Ficoll-Paque gradient centrifugation before staining. […] Sigma Chemical Co.) at room temperature for 20 minutes, washed extensively and used. For priming in vitro, responder PBMCs were incubated for 72 or 144 h at a ratio of either 1:1 or 2:1 respectively, with stimulator PBMCs. Where appropriate, CsA. Aph. and/or […] were added at the concentrations indicated, of PFA-fixed PBMCs were used instead.

[3] = tested on: allo-specific precursor T cells; test: Limiting dilution analysis of clonal responder frequency and burst size; assay type: cell-based, human
From the text: Limiting dilution analyses were used to calculate the number of transplantation antigen-specific memory T cells in cultures primed in the presence or absence of POX. Multiple replicate wells of titrated numbers of primed responders were restimulated. the numbers of wells showing proliferative responses at each responder dose were used to calculate the frequency of responding memory t cells in the primed populations. estimates of the extent of proliferation in wells effectively containing single responder cells served as a measure of clonal burst size. […] To determine the frequence of all-specific precursor cells in the various responder populations, titrating numbers (from 10,000 to 200 per well) of variously primed cells were added to a constant number (1×10^5 per well) of g-irradiated stimulator PBMCs. Of the 48 wells plated per responder dose, those wells showing a response at least twice that of the background value were scored positive. The responder frequency was calculated by taking the number of negative wells into account. The response was considered clonal at the responder cell number where the proportion of positively responding wells was less than 37%. At responder cell concentrations showing clonal frequencies, the average cpm values of responding (versus non-responding) wells were used as an estimate of the average clonal burst size of single responding T cells.

CD25+ primed T cells = test: Propidium iodide staining for apoptosis of CD25+ primed T cells; assay type: cell-based, human; settings: over the 48 hour rest period after priming with drug
Description: For analysis of cell surface markers, primed cell populations separated on Ficoll-Paque gradients were used. […] Briefly, 1-3×10^5 cells per well were stained with primary antibodies at 4° C., followed by appropriately labeled secondary reagents if required. Samples were analyzed using a Bryte flow cytometer (bio-Rad, Hemel Hampstead, UK). Antibodies to the T cell markers CD3 (OKT3), CD4 (OKT4), and to the activation markers CD25 and Fas (CD95) were used for staining. To detect apoptosis using propidium iodide (PI, Sigma Chemical Co.), antibody-stained cells were fixed and permeabilized with 70% ethanol, washed, and PI […] added just before cytometric analysis. Data were analyzed using FlowJo software (Treestar, San Jose, Calif.).
The differences between the kinetics of CD25 expression over two days of rest culture prompted the question of whether this was linked to effects of POX on the survival of T cells activated during priming. Almost all CD25^+ cells generated during priming were CD4 T cells (FIG. 17A). therefore, responder populations primed variously were stained in a two-color flow cytometric analysis for CD25 and Fas, since Fas engagement is involved in activation induced T cell death. The frequency and level of Fas expression in the CD25^+ population was unchanged in the presence (FIG. 20, panels B and D) or absence (panels A and C) of POX during priming. […]

CC(=O)CCCCn1c(=O)c2c(ncn2C)n(C)c1=O [POX, pentoxifylline]
IL-2 in culture supernatants (human T cells [1]; Trental 100 μg/ml treated cultures): do not find detectable levels
levels of IFN-γ produced during recall (human T cells [1]; primed in presence vs absence of Trental): not different
intracellular cAMP levels (T cell lines): does not increase
subsequent alloproliferative response of unprimed cells incubated with drug alone (human T cells [2]; 100 μg/ml, no stimulators during incubation): does not enhance
enhancing effect on the recall response (human T cells [2]; lower doses of Trental during priming): decreases
secondary response to unfixed PBMCs (human T cells [2]; primed with PF-fixed PBMCs in presence of POX 100 ug/ml): enhanced
recall response (human T cells [2]; primed with Trental plus Aph vs Aph alone): still higher
memory/recall proliferative response (human T cells [2]): much improved
memory/recall proliferative response (human T cells [2]; listed as Trental): enhanced
frequency of alloreactive responder (memory) T cells ([3]; drug present during priming (POX 100 ug/ml)): enhanced; also recorded: significantly enhances
clonal burst size (average clonal proliferative response) ([3]; drug-treated vs untreated during priming): without altering; also recorded: not significantly different
proportion of apoptotic cells in the CD25+ population (CD25+ primed T cells): does not increase significantly
